Measured values reported in US9791443B2, “Method for differentially quantifying naturally processed HLA-restricted peptides for cancer, autoimmune and infectious diseases immunotherapy development” (IMMATICS BIOTECHNOLOGIES GMBH, priority 2010, dated 2017).

Test system: CD8+ T cells
Test: In vitro immunogenicity: priming of CD8+ T cells with pMHC/anti-CD28 coated beads (aAPC), A*2402 multimer staining
Assay type: cell-based, human
Details: HLA-A*24 healthy donors, three stimulation cycles; for Positive donors/donors tested [%]: positive among evaluable donors, at least two donors evaluable per peptide; for Positive wells/wells tested [%]: positive among evaluable wells, at least 24 wells evaluable per peptide
Excerpt: To get information regarding the immunogenicity of the TUMAPs of the present invention, we performed investigations using a well established in vitro stimulation platform already described by (Walter, S, Herrgen, L, Schoor, O, Jung, G, Wernet, D, Buhring, H J, Rammensee, H G, and Stevanovic, S; 2003, Cutting edge: predetermined avidity of human CD8 T cells expanded on calibrated MHC/anti-CD28-coated microspheres, J. Immunol., 171, 4974-4978).
In order to perform in vitro stimulations by artificial antigen presenting cells (aAPC) loaded with peptide-MHC complex (pMHC) and anti-CD28 antibody, we first isolated CD8 T cells from fresh HLA-A*24 leukapheresis products of healthy donors obtained from the Blood Bank Tuebingen.
CD8 T cells were either directly enriched from the leukapheresis product or PBMCs (peripheral blood mononuclear cells) were isolated first by using standard gradient separation medium (PAA, Cölbe, Germany). Isolated CD8 lymphocytes or PBMCs were incubated until use in T-cell medium (TCM) consisting of RPMI-Glutamax (Invitrogen, Karlsruhe, Germany) supplemented with 10% heat inactivated human AB serum (PAN-Biotech, Aidenbach, Germany), 100 U/ml Penicillin/100 μg/ml Streptomycin (Cambrex, Cologne, Germany), 1 mM sodium pyruvate (CC Pro, Oberdorla, Germany), 20 μg/ml Gentamycin (Cambrex). 2.5 ng/ml IL-7 (PromoCell, Heidelberg, Germany) and 10 U/ml IL-2 (Novartis Pharma, Nürnberg, Germany) were also added to the TCM at this step. Isolation of CD8+ lymphocytes was performed by positive selection using CD8 MicroBeads (Miltenyi Biotec, Bergisch-Gladbach, Germany).
Generation of pMHC/anti-CD28 coated beads, T-cell stimulations and readout was performed as described before (Walter et al. 4974-78) with minor modifications. Briefly, biotinylated peptide-loaded recombinant HLA-A*2402 molecules lacking the transmembrane domain and biotinylated at the carboxy terminus of the heavy chain were produced. The purified costimulatory mouse IgG2a anti human CD28 Ab 9.3 (Jung, Ledbetter, and Muller-Eberhard 4611-15) was chemically biotinylated using Sulfo-N-hydroxysuccinimidobiotin as recommended by the manufacturer (Perbio, Bonn, Germany).
800.000 beads/200 μl were coated in 96-well plates in the presence of 600 ng biotin anti-CD28 plus 200 ng relevant biotin-pMHC (high density beads). Stimulations were initiated in 96-well plates by co-incubating 1×10^6 CD8+ T cells with 2×10^5 washed coated beads in 200 μl TCM supplemented with 5 ng/ml IL-12 (PromoCell) for 3-4 days at 37° C. Half of the medium was then exchanged by fresh TCM supplemented with 80 U/ml IL-2 and incubating was continued for 3-4 days at 37° C. This stimulation cycle was performed for a total of three times. Finally, multimeric analyses were performed by staining the cells with Live/dead-Aqua dye (Invitrogen, Karlsruhe, Germany), CD8-FITC antibody clone SK1 (BD, Heidelberg, Germany) and PE- or APC-coupled A*2402 MHC multimers. For analysis, a BD LSRII SORP cytometer equipped with appropriate lasers and filters was used. Peptide specific cells were calculated as percentage of total CD8+ cells. Evaluation of multimeric analysis was done using the FlowJo software (Tree Star, Oregon, USA). In vitro priming of specific multimer+ CD8+ lymphocytes was detected by appropriate gating and by comparing to negative control stimulations.

Sequence	Positive donors/donors tested [%]	Positive wells/wells tested [%]
AYAIIKEEL (listed as Homo sapiens) [ATAD2-001]	50%	4%
AYLVYTDRL (listed as Homo sapiens) [PPAP2C-001]	100%	54%
FYISPVNKL (listed as Homo sapiens) [AVL9-001]	100%	50%
HYKPTPLYF (listed as Homo sapiens) [SMC4-001]	75%	9%
IYNGKLFDLL (listed as Homo sapiens) [KIF2C-001]	13%	2%
KYNDTFWKEF (listed as Homo sapiens) [HSP90B1-001]	50%	4%
LYQILQGIVF (listed as Homo sapiens) [CDC2-001]	88%	28%
NYEETFPHI (listed as Homo sapiens) [MUC6-001]	50%	21%
NYLLYVSNF [MMP11-001]	33%	11%
NYLLYVSNF [MST1R-001] (listed as Homo sapiens)	50%	14%
NYLPFIMEL (listed as Homo sapiens) [UCHL5-001]	75%	14%
QYASRFVQL (listed as Homo sapiens) [PLK4-001]	60%	5%
RFLSGIINF (listed as Homo sapiens) [NUF2-002]	50%	4%
RYLWATVTI (listed as Homo sapiens) [ASPM-001]	17%	3%
SYIDVLPEF (listed as Homo sapiens) [MET-006]	63%	22%
SYNPLWLRI (listed as Homo sapiens) [ASPM-002]	63%	31%
TYGNLLDYL (listed as Homo sapiens) [ABL1-001]	50%	13%
VFDTAIAHLF (listed as Homo sapiens) [SIAH2-001]	50%	4%
VFIFKGNQF (listed as Homo sapiens) [MMP3-001]	13%	1%
VWSDVTPLTF [PROM1-001]	83%	26%
VYGIRLEHF (listed as Homo sapiens) [NUF2-001]	100%	25%
VYIEKNDKL (listed as Homo sapiens) [ERBB3-001]	83%	15%
VYKVVGNLL (listed as Homo sapiens) [IQGAP3-001]	100%	24%
VYTTSYQQI (listed as Homo sapiens) [NFYB-001]	50%	7%
YYNAAGFNKL (listed as Homo sapiens) [UQCRB-001]	100%	38%
